Like-named read-outs stand apart in the source and are kept apart here.
Key:
[1] = Concentrations in plasma and brain of wild-type and M1R KO mice; type: in vivo; conditions: mouse, po, 10 mg/kg, 10 mg/kg p.o.; for concentration at 2 h: mean ± SD; for Kp at 2 h: brain/plasma
Method: (§1) Eight‐week‐old Long‐Evans rats, 8‐ to 9‐week‐old C57BL/6J mice, and 22‐ or 29‐week‐old M1R KO mice and their WT littermates were used in this study. On the day of the experiment, animals were placed in individual cages and acclimated for more than 1 hour. A test compound or vehicle was administered 2 hours before the animals were sacrificed. […] LiCl (10 mmol/kg, s.c.) was injected 1 hour before sacrifice. In the repeated administration study, a test compound was administered to mice once daily for 13 days; on day 14, animals were treated with a test compound and LiCl (10 mmol/kg, s.c.) and then sacrificed. Animals were killed by decapitation, and blood was collected into tubes containing ethylenediaminetetraacetic acid for pharmacokinetic analysis; brains were quickly dissected, frozen on dry ice, and stored at −80°C until analysis. Brain tissues were homogenized in 19 (for rat tissues) or 39 (for mouse tissue) volumes of homogenization buffer (10 mmol/L HEPES pH 7.4, 50 mmol/L LiCl, 150 mmol/L NaCl, and 1% Triton X‐100), and the homogenate was incubated on a rotator for 1 hour, followed by centrifugation. The supernatant was diluted with 39 (for rat tissues) or 19 (for mouse tissues) volumes of dilution buffer (10 mmol/L HEPES pH 7.4, 50 mmol/L LiCl, and 150 mmol/L NaCl). IP1 and protein concentrations in the diluted supernatant were measured using IP‐One HTRF assay kit (Cisbio Bioassays) and BCA Protein Assay Kit (Thermo Fisher Scientific Inc), respectively, according to the manufacturers’ instructions. IP1 production was expressed as the ratio of IP1 to protein concentrations.

SD rats = conditions: rats; for Convulsion / Fasciculation / Lacrimation / Loose or mucous stool or diarrhea / Miosis / Salivation / Loose, mucous stool, or diarrhea / Myosis: rats with effect/total
Method: Seven‐ or 8‐week‐old SD rats were individually placed into observation cages. After an acclimation period of at least 1 hour, a test compound was administered to the rats. […] Cholinergic side effects, including diarrhea, lacrimation, salivation, miosis, and fasciculation, were assessed blindly, as described previously,27 and convulsion was scored using a modified Racine scale,37 as follows: stage 0, normal; stage 1, immobility; stage 2, forelimb and/or tail extension and rigid posture; stage 3, repetitive movements, head nodding, and gnawing; stage 4, rearing and falling; stage 5, continuous rearing and falling; stage 6, severe tonic‐clonic seizure with loss of postural control; and stage 7, death in the first 2 hours.

[2] = Concentrations in mouse plasma and brain after single and repeated treatment; type: in vivo; conditions: C57BL/6J, oral, mean ± SD
Method: as §1

[3] = tested on: IP1 production in the hippocampus, prefrontal cortex, striatum, and brainstem; experiment: In vivo IP1 assay, wild‐type and M1R KO mice; design: species or system mouse; conditions: 10 mg/kg p.o.
Method: as §1

[4] = tested on: IP1 production in the mouse hippocampus; experiment: In vivo IP1 assay, mouse hippocampus; conditions: p.o.; 3, 10, 30 mg/kg tested
Method: as §1, with “Brain tissues were homogenized in 19 (for rat tissues) or 39 (for mouse tissue) volumes of homogenization buffer (10 mmol/L HEPES pH 7.4, 50 mmol/L LiCl, 150 mmol/L NaCl, and 1% Triton X‐100), and the homogenate was incubated on a rotator for 1 hour, followed by centrifugation. The supernatant was diluted with 39 (for rat tissues) or 19 (for mouse tissues) volumes of dilution buffer (10 mmol/L HEPES pH 7.4, 50 mmol/L LiCl, and 150 mmol/L NaCl).” left out

human M2R–M5R = experiment: Ca2+ mobilization assay, PAM activity (with EC20 ACh), CHO‐K1 cells; type: cell-based; conditions: inflection point, EC20 concentration of ACh, read-out: PAM activity IP
Method: Chinese hamster ovary (CHO)‐K1 cells expressing M1R–M5R were plated on a 96‐well black, clear bottom plate at 30 000 cells/well and incubated at 37°C in an atmosphere of 5% CO2 for 1 day. On the day of the assay, cells were incubated with calcium dye buffer (Hanks’ Balanced Salt Solution (HBSS) containing 20 mmol/L HEPES, 0.1% fatty acid‐free bovine serum albumin (BSA), 0.08% pluronic F127 (Dojindo Laboratories), 2.5 μg/mL Fluo‐4 (Dojindo Laboratories), and 1.25 mmol/L probenecid (Dojindo Laboratories)) for 30 minutes at 37°C in an atmosphere of 5% CO2 and then incubated for 30 minutes at room temperature. To measure Ca^2+ mobilization using CellLux (PerkinElmer), cells were stimulated with T‐495 or MK‐7622 (0.01‐1000 nmol/L for PAM activity; 0.3‐10 000 nmol/L for agonist activity) in assay buffer (HBSS containing 20 mmol/L HEPES and 0.1% fatty acid‐free BSA) with or without an EC20 concentration of ACh. The inflection point (IP) and EC50 values were calculated using the following equation by GraphPad Prism 5 software (GraphPad Software Inc): Y=Bottom+(Top-Bottom)/1+10^(Log IPorEC50-X×HillSlope))
where X and Y are the log concentration of a compound and the percentage of Ca^2+ response, respectively, and Top and Bottom are the upper and lower plateaus, respectively.

[5] = Concentrations in rat plasma and brain (IP1 study); type: in vivo; conditions: Long-Evans, po, mean ± SD; for Kp at 2 h: brain/plasma, read-out: Kp (brain‐to‐plasma concentration ratio)
Method: as §1

[6] = 1 mg/kg p.o., observed 15 min to 8 h
[7] = 3 mg/kg p.o., observed 15 min to 8 h
[8] = 10 mg/kg p.o., observed 15 min to 8 h
[9] = 30 mg/kg p.o., observed 15 min to 8 h
[10] = 100 mg/kg p.o., observed 15 min to 8 h
[11] = T-495 0.3 mg/kg p.o. alone, combination study
[12] = donepezil 0.1 mg/kg + T-495 0.3 mg/kg p.o.

SMILES: Cc1c(Cc2ccc(Cl)nc2)cc2c(c1Cl)OCN([C@H]1CCC[C@@H]1O)C2=O [T‐495, 8‐chloro‐6‐((6‐chloropyridin‐3‐yl)methyl)‐3‐((1S,2S)‐2‐hydroxycyclopentyl)‐7‐methyl‐2,3‐dihydro‐4H‐1,3‐benzoxazin‐4‐one]
- concentration at 2 h ([1]; brain (hippocampus), M1R KO mice hippocampus, read-out: Brain concentration): 856 ± 78.4 ng/g
- concentration at 2 h ([1]; brain (hippocampus), wild-type mice hippocampus, read-out: Brain concentration): 1030 ± 145 ng/g
- Kp at 2 h ([1]; M1R KO mice): 0.55
- Kp at 2 h ([1]; wild-type mice): 0.62 ± 0.1
- concentration at 2 h ([1]; plasma, M1R KO mice, n = 10, read-out: Plasma concentration): 1590 ± 266 ng/mL
- concentration at 2 h ([1]; plasma, wild-type mice, n = 10, read-out: Plasma concentration): 1690 ± 280 ng/mL
- dose difference between memory improvement and induction of cholinergic side effects, including diarrhea (SD rats): 100 fold
- Convulsion (SD rats; [6]): 0/6
- Fasciculation (SD rats; [6]): 0/6
- Lacrimation (SD rats; [6]): 0/6
- Loose or mucous stool or diarrhea (SD rats; [6]): 0/6
- Miosis (SD rats; [6]): 0/6
- Salivation (SD rats; [6]): 0/6
- Convulsion (SD rats; [7]): 0/6
- Fasciculation (SD rats; [7]): 0/6
- Lacrimation (SD rats; [7]): 0/6
- Loose or mucous stool or diarrhea (SD rats; [7]): 0/6
- Miosis (SD rats; [7]): 0/6
- Salivation (SD rats; [7]): 0/6
- Convulsion (SD rats; [8]): 0/6
- Fasciculation (SD rats; [8]): 0/6
- Lacrimation (SD rats; [8]): 0/6
- Loose or mucous stool or diarrhea (SD rats; [8]): 0/6
- Miosis (SD rats; [8]): 0/6
- Salivation (SD rats; [8]): 0/6
- Convulsion (SD rats; [9]): 0/6
- Fasciculation (SD rats; [9]): 0/6
- Lacrimation (SD rats; [9]): 0/6
- Loose or mucous stool or diarrhea (SD rats; [9]): 0/6
- Miosis (SD rats; [9]): 0/6
- Salivation (SD rats; [9]): 0/6
- Convulsion (SD rats; [10]): 1/6
- Fasciculation (SD rats; [10]): 0/6
- Lacrimation (SD rats; [10]): 0/6
- Loose or mucous stool or diarrhea (SD rats; [10]): 5/6
- Miosis (SD rats; [10]): 0/6
- Salivation (SD rats; [10]): 1/6
- diarrhea score (SD rats; 100 mg/kg p.o., vs vehicle): significantly increased
- Convulsion (SD rats; [11]): 0/6
- Fasciculation (SD rats; [11]): 0/6
- Lacrimation (SD rats; [11]): 0/6
- Loose, mucous stool, or diarrhea (SD rats; [11]): 0/6
- Myosis (SD rats; [11]): 0/6
- Salivation (SD rats; [11]): 0/6
- cholinergic side effects, combination with donepezil (SD rats; T‐495 0.3 mg/kg + donepezil 0.1 mg/kg): no cholinergic side effects were observed
- Convulsion (SD rats; [12]): 0/6
- Fasciculation (SD rats; [12]): 0/6
- Lacrimation (SD rats; [12]): 0/6
- Loose, mucous stool, or diarrhea (SD rats; [12]): 0/6
- Myosis (SD rats; [12]): 0/6
- Salivation (SD rats; [12]): 0/6
- cholinergic side effects (SD rats; doses up to 30 mg/kg p.o.): did not elicit any cholinergic side effects
- concentration at 2 h ([2]; brain (hippocampus), 10 mg/kg, mouse hippocampus, pretreated with the compound 10 mg/kg p.o. for 13 days, 10 mg/kg p.o., read-out: Brain concentration): 879 ± 159 ng/g
- concentration at 2 h ([2]; brain (hippocampus), 10 mg/kg, mouse hippocampus, vehicle-pretreated, 10 mg/kg p.o., read-out: Brain concentration): 956 ± 122 ng/g
- concentration at 2 h ([2]; brain (hippocampus), 30 mg/kg, mouse hippocampus, pretreated with the compound 10 mg/kg p.o. for 13 days, 30 mg/kg p.o., read-out: Brain concentration): 4090 ± 599 ng/g
- concentration at 2 h ([2]; brain (hippocampus), 30 mg/kg, mouse hippocampus, vehicle-pretreated, 30 mg/kg p.o., read-out: Brain concentration): 3650 ± 744 ng/g
- concentration at 2 h ([2]; plasma, 10 mg/kg, pretreated with the compound 10 mg/kg p.o. for 13 days, 10 mg/kg p.o., read-out: Plasma concentration): 1300 ± 338 ng/mL
- concentration at 2 h ([2]; plasma, 10 mg/kg, vehicle-pretreated, 10 mg/kg p.o., n = 10, read-out: Plasma concentration): 1150 ± 215 ng/mL
- concentration at 2 h ([2]; plasma, 30 mg/kg, pretreated with the compound 10 mg/kg p.o. for 13 days, 30 mg/kg p.o., read-out: Plasma concentration): 5420 ng/mL
- concentration at 2 h ([2]; plasma, 30 mg/kg, vehicle-pretreated, 30 mg/kg p.o., n = 10, read-out: Plasma concentration): 4890 ± 923 ng/mL
- IP1 production in hippocampus, prefrontal cortex, and striatum ([3]; M1R KO mice): did not cause a significant increase
- IP1 production in hippocampus, prefrontal cortex, and striatum ([3]; wild‐type mice): significantly increased
- minimum effective dose for increase of IP1 production in the mouse hippocampus [4]: 10 mg/kg
- EC50 (human M2R–M5R): > 1000 nM
- concentration at 2 h ([5]; brain (hippocampus), rat hippocampus, 3 mg/kg p.o., read-out: Brain concentration): 66.2 ± 18.5 ng/g
- concentration at 2 h ([5]; brain (hippocampus), rat hippocampus, 10 mg/kg p.o., read-out: Brain concentration): 304 ± 82.8 ng/g
- concentration at 2 h ([5]; brain (hippocampus), rat hippocampus, 30 mg/kg p.o., read-out: Brain concentration): 1000 ± 330 ng/g
- Kp at 2 h ([5]; rat, 3 mg/kg p.o.): 1.4 ± 0.1
- Kp at 2 h ([5]; rat, 10 mg/kg p.o.): 1 ± 0.1
- Kp at 2 h ([5]; rat, 30 mg/kg p.o.): 1 ± 0.1
- concentration at 2 h ([5]; plasma, rat, 3 mg/kg p.o., n = 6, read-out: Plasma concentration): 49.6 ± 14.5 ng/mL
- concentration at 2 h ([5]; plasma, rat, 10 mg/kg p.o., n = 6, read-out: Plasma concentration): 298 ± 75.2 ng/mL
- concentration at 2 h ([5]; plasma, rat, 30 mg/kg p.o., n = 6, read-out: Plasma concentration): 1050 ± 358 ng/mL

Reference: article PMC6986443, “T‐495, a novel low cooperative M1 receptor positive allosteric modulator, improves memory deficits associated with cholinergic dysfunction and is characterized by low gastrointestinal side effect risk” (Pharmacology Research & Perspectives, 2020)
